Results published in patent US12617773B2, “Azetidin-3-ylmethanol derivatives as CCR6 receptor modulators” (Idorsia Pharmaceuticals Ltd, priority 2020, dated 2026).

Molecular target: T1, human CCR6 (Homo sapiens, UniProt P51684)
T1 construct: expressed in transfected cells; host or cells: HEK-293
T1 sequence (P51684 1-374): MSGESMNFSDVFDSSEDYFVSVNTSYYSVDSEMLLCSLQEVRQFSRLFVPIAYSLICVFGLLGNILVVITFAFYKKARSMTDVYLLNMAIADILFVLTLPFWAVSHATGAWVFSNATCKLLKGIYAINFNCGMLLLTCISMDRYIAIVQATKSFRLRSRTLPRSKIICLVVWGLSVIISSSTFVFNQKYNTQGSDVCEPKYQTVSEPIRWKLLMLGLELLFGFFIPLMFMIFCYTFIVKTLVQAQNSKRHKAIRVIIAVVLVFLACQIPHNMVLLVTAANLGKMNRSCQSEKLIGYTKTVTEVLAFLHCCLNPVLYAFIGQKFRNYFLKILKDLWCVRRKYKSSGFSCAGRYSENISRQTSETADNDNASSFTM
Experiment: FLIPR assay (inhibition of CCL20-induced calcium signal)
Assay type: cell-based
Settings: HEK-293 cells expressing human CCR6; mean values where determined several times; read-out: FLIPR IC50
How it was run: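 IC50 values come from baseline-corrected peak calcium fluorescence after agonist. The agonist was CCL20 at 10 nM final, added to engineered human CCR6 HEK-293 cells following a 30-min, room-temperature, dark preincubation with serially diluted compound. Readings were taken in a fluorometric imaging plate reader.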

Row | IC50 [µM] | SMILES
1 | 0.187 | CC(C)c1ccc([C@](O)(c2cncc(-c3nc(C4CCN(C(=O)C5COCCO5)CC4)no3)c2)C2(C)CN(C)C2)cc1 (stereo partly drawn) [Example 525, [4-(5-{5-[(R)-(1,3-Dimethyl-azetidin-3-yl)-hydroxy-(4-isopropyl-phenyl)-methyl]-pyridin-3-yl}-[1,2,4]oxadiazol-3-yl)-piperidin-1-yl]-[1,4]dioxan-2-yl-methanone]
2 | 0.171 | COCC(=O)N1CCC(c2noc(-c3cncc([C@@](O)(c4ccc(C(C)C)cc4)C4(C)CN(C)C4)c3)n2)CC1 [Example 526, 1-[4-(5-{5-[(R)-(1,3-Dimethyl-azetidin-3-yl)-hydroxy-(4-isopropyl-phenyl)-methyl]-pyridin-3-yl}-[1,2,4]oxadiazol-3-yl)-piperidin-1-yl]-2-methoxy-ethanone]
3 | 0.0743 | CC(C)c1ccc([C@](O)(c2cncc(-c3nc(C4CCN(S(C)(=O)=O)CC4)no3)c2)C2(C)CN(C)C2)cc1 [Example 527, (R)-(1,3-Dimethyl-azetidin-3-yl)-(4-isopropyl-phenyl)-{5-[3-(1-methanesulfonyl-piperidin-4-yl)-[1,2,4]oxadiazol-5-yl]-pyridin-3-yl}-methanol]
4 | 0.0669 | COCCS(=O)(=O)N1CCC(c2noc(-c3cncc([C@@](O)(c4ccc(C(C)C)cc4)C4(C)CN(C)C4)c3)n2)CC1 [Example 528, (R)-(1,3-Dimethyl-azetidin-3-yl)-(4-isopropyl-phenyl)-(5-{3-[1-(2-methoxy-ethanesulfonyl)-piperidin-4-yl]-[1,2,4]oxadiazol-5-yl}-pyridin-3-yl)-methanol]
5 | 0.134 | CC(C)c1ccc([C@](O)(c2cncc(-c3nc(C4CCN(C(=O)CO)CC4)no3)c2)C2(C)CN(C)C2)cc1 [Example 529, 1-[4-(5-{5-[(R)-(1,3-Dimethyl-azetidin-3-yl)-hydroxy-(4-isopropyl-phenyl)-methyl]-pyridin-3-yl}-[1,2,4]oxadiazol-3-yl)-piperidin-1-yl]-2-hydroxy-ethanone]
6 | 0.0587 | CC(C)c1ccc([C@](O)(c2cncc(-c3ncon3)c2)C2(C)CN(C)C2)cc1 [Example 530, (R)-(1,3-Dimethyl-azetidin-3-yl)-(4-isopropyl-phenyl)-(5-[1,2,4]oxadiazol-3-yl-pyridin-3-yl)-methanol]
7 | 0.09 | CC(=O)N1CCC(c2nc(-c3cncc([C@@](O)(c4ccc(C(C)C)cc4)C4(C)CN(C)C4)c3)no2)CC1 [Example 531, 1-[4-(3-{5-[(R)-(1,3-Dimethyl-azetidin-3-yl)-hydroxy-(4-isopropyl-phenyl)-methyl]-pyridin-3-yl}-[1,2,4]oxadiazol-5-yl)-piperidin-1-yl]-ethanone]
8 | 0.718 | CN1CC(C)([C@](O)(c2ccc(Br)cc2)c2cncc(-c3noc(C(C)(C)O)n3)c2)C1 [Example 532]
9 | 1.02 | CN1CC(C)([C@@](O)(c2cncc(-c3noc(C(C)(C)O)n3)c2)c2ccc3ccccc3c2)C1 [Example 533]
10 | 0.047 | CN1CC(C)([C@](O)(c2ccc(C3(C(F)(F)F)CC3)cc2)c2cncc(-c3noc(C(C)(C)O)n3)c2)C1 [Example 534]
11 | 0.331 | CN1CC(C)([C@](O)(c2ccc(C(C)(C)C(F)(F)F)cc2)c2cncc(-c3noc(C(C)(C)O)n3)c2)C1 [Example 535]
12 | 2.45 | CC(C)Oc1ccc([C@](O)(c2cncc(-c3noc(C(C)(C)O)n3)c2)C2(C)CN(C)C2)cc1 [Example 536]
13 | 0.152 | CN1CC(C)([C@](O)(c2ccc(C(F)(C(F)(F)F)C(F)(F)F)cc2)c2cncc(-c3noc(C(C)(C)O)n3)c2)C1 [Example 537]
14 | 0.145 | CN1CC(C)([C@](O)(c2ccc(S(F)(F)(F)(F)F)cc2)c2cncc(-c3noc(C(C)(C)O)n3)c2)C1 [Example 538]
15 | 0.056 | CC(C)c1ccc([C@](O)(c2cncc(-c3noc(C(C)(C)O)n3)c2)C2(C)CN(C)C2)cc1F [Example 539]
16 | 0.122 | CN1CC(C)([C@](O)(c2ccc(C(C)(C)C)cc2)c2cncc(-c3noc(C(C)(C)O)n3)c2)C1 [Example 540]
17 | 0.452 | CN1CC(C)([C@@](O)(c2cncc(-c3noc(C(C)(C)O)n3)c2)c2ccc3sccc3c2)C1 [Example 541]
18 | 0.0348 | CN1CC(C)([C@](O)(c2ccc(C(F)(F)C(F)(F)F)cc2)c2cncc(-c3noc(C(C)(C)O)n3)c2)C1 [Example 542]
19 | 0.0228 | CN1CC(C)([C@](O)(c2ccc(C3(C)CC3)cc2)c2cncc(-c3noc(C(C)(C)O)n3)c2)C1 [Example 543]
20 | 0.257 | Cc1cc([C@](O)(c2cncc(-c3noc(C(C)(C)O)n3)c2)C2(C)CN(C)C2)ccc1C(C)C [Example 544]
21 | 0.061 | CN1CC(C)([C@](O)(c2ccc(OC(F)(F)F)cc2)c2cncc(-c3noc(C(C)(C)O)n3)c2)C1 [Example 545]
22 | 0.776 | CC(=O)N1CCC(c2nc(-c3cncc([C@@](O)(c4ccc(Br)cc4)C4(C)CN(C)C4)c3)no2)CC1 [Example 546]
23 | 0.797 | CN1CC(C)([C@](O)(c2ccc(C(C)(C)F)cc2)c2cncc(-c3noc(C(C)(C)O)n3)c2)C1 [Example 547]
24 | 0.742 | CN1CC(C)([C@](O)(c2ccc(C(C)(F)F)cc2)c2cncc(-c3noc(C(C)(C)O)n3)c2)C1 [Example 548]
25 | 0.0582 | CN1CC(C)([C@](O)(c2ccc(C34CC(C3)C4)cc2)c2cncc(-c3noc(C(C)(C)O)n3)c2)C1 [Example 549]
26 | 0.0708 | CN1CC(C)([C@](O)(c2ccc(CC(F)(F)F)cc2)c2cncc(-c3noc(C4CCOCC4)n3)c2)C1 [Example 550]

Row | IC50 [µM] | SMILES
27 | 0.135 | CCC(C)(C)c1ccc([C@](O)(c2cncc(-c3noc(C(C)(C)O)n3)c2)C2(C)CN(C)C2)cc1 [Example 551]
28 | 0.0768 | CC(=O)N1CCC(c2nc(-c3cncc([C@@](O)(c4ccc(C(C)C)c(F)c4)C4(C)CN(C)C4)c3)no2)CC1 [Example 552]
29 | 0.0623 | CC(=O)N1CCC(c2nc(-c3cncc([C@@](O)(c4ccc(C5(C(F)(F)F)CC5)cc4)C4(C)CN(C)C4)c3)no2)CC1 [Example 553]
30 | 0.117 | CC(=O)N1CCC(c2nc(-c3cncc([C@@](O)(c4ccc(OC(F)(F)F)cc4)C4(C)CN(C)C4)c3)no2)CC1 [Example 554]
31 | 0.986 | CC(=O)N1CCC(c2nc(-c3cncc([C@@](O)(c4ccc(OC(C)C)cc4)C4(C)CN(C)C4)c3)no2)CC1 [Example 555]
32 | 0.615 | CC(C)c1ccc([C@](O)(c2cncc(-c3noc(C(C)(C)O)n3)c2)C2(C)CN(C)C2)cc1Cl [Example 556]
33 | 0.0463 | CN1CC(C)([C@](O)(c2ccc(C3CCC3)cc2)c2cncc(-c3noc(C(C)(C)O)n3)c2)C1 [Example 557]
34 | 0.0845 | CC(=O)N1CCC(c2nc(-c3cncc([C@@](O)(c4ccc(C5CCC5)cc4)C4(C)CN(C)C4)c3)no2)CC1 [Example 558]
35 | 0.0856 | CC(=O)N1CCC(c2nc(-c3cncc([C@@](O)(c4cc(F)c(C(C)C)c(F)c4)C4(C)CN(C)C4)c3)no2)CC1 [Example 559]
36 | 0.0746 | CC(C)c1c(F)cc([C@](O)(c2cncc(-c3noc(C(C)(C)O)n3)c2)C2(C)CN(C)C2)cc1F [Example 560]
37 | 0.766 | CC(=O)N1CCC(c2nc(-c3cncc([C@@](O)(c4ccc(OC5CCC5)cc4)C4(C)CN(C)C4)c3)no2)CC1 [Example 561]
38 | 0.0447 | CCC(CC)c1ccc(C(O)(c2cncc(-c3noc(C(C)(C)O)n3)c2)C2(C)CN(C)C2)cc1 (stereo not shown) [Example 562]
39 | 0.0452 | CCC(CC)c1ccc(C(O)(c2cncc(-c3noc(C4CCN(C(C)=O)CC4)n3)c2)C2(C)CN(C)C2)cc1 (stereo not shown) [Example 563]
40 | 0.0919 | CN1CC(C)(C(O)(c2ccc(CC(C)(C)C)cc2)c2cncc(-c3noc(C(C)(C)O)n3)c2)C1 (stereo not shown) [Example 564]
41 | 0.116 | CC(=O)N1CCC(c2nc(-c3cncc(C(O)(c4ccc(CC(C)(C)C)cc4)C4(C)CN(C)C4)c3)no2)CC1 (stereo not shown) [Example 565]
42 | 0.209 | CC(=O)N1CCC(c2nc(-c3cncc(C(O)(c4ccc(C5(C)CC5)cc4)C4(C)CN(C)C4)c3)no2)CC1 (stereo not shown) [Example 566]
43 | 0.0591 | CCCc1ccc([C@](O)(c2cncc(-c3noc(C(C)(C)O)n3)c2)C2(C)CN(C)C2)cc1 [Example 567]
44 | 0.0976 | CN1CC(C)([C@](O)(c2ccc(C3CC3)cc2)c2cncc(-c3noc(C(C)(C)O)n3)c2)C1 [Example 568]
45 | 0.118 | CCc1ccc([C@](O)(c2cncc(-c3noc(C(C)(C)O)n3)c2)C2(C)CN(C)C2)cc1 [Example 569]
46 | 0.0658 | CCCCc1ccc([C@](O)(c2cncc(-c3noc(C(C)(C)O)n3)c2)C2(C)CN(C)C2)cc1 [Example 570]
47 | 1.19 | CN1CC(C)([C@](O)(c2ccc(C(F)(F)F)cc2)c2cncc(-c3noc(C(C)(C)O)n3)c2)C1 [Example 571]
48 | 0.149 | CN1CC(C)([C@](O)(c2ccc(CC(F)(F)F)cc2)c2cncc(-c3noc(C(C)(C)O)n3)c2)C1 [Example 572]
49 | 0.0759 | CC(C)Cc1ccc([C@](O)(c2cncc(-c3noc(C(C)(C)O)n3)c2)C2(C)CN(C)C2)cc1 [Example 573]
50 | 1.34 | CN1CC(C)([C@](O)(c2ccc(OC3CCC3)cc2)c2cncc(-c3noc(C(C)(C)O)n3)c2)C1 [Example 574]
51 | 0.103 | C=C(C)c1ccc([C@](O)(c2cncc(-c3noc(C(C)(C)O)n3)c2)C2(C)CN(C)C2)cc1 [Example 575]
52 | 0.267 | CC(=O)N1CCC(c2nc(-c3cncc([C@@](O)(c4ccc(CC(F)(F)F)cc4)C4(C)CN(C)C4)c3)no2)CC1 [Example 576]
